Key:
HepG2 cells = experiment: Glucose production assay in HepG2 cells; format: cell-based, human; conditions: tested doses, serum-free glucose production media, 48 hr (FIG. 1)
Procedure: Equal numbers of Human HepG2 or rat H4IIE cells (1-1.5×10^5 cells/well) were seeded on 96 well plates in 10% FBS-containing media for 24 hr. Cells were then washed twice with PBS, and treated with various concentrations of compounds, metformin or insulin in 100 μl of glucose production media (glucose-free, phenol red-free DMEM media supplemented with 20 mM sodium lactate, 2 mM sodium pyruvate and 5 mM HEPES) at 37° C. for 24 hr (H4IIE cells only) or 48 hr (HepG2 cell only). Cells were also incubated with 0.24% DMSO (the maximal volume of DMSO solvent used in the experiments).
After the above treatments, 50 μl of culture media were collected, and subjected to glucose analysis using Molecular Probes Amplex Red glucose assay kit (Cat #A22189) according to the manufacturer's protocol. Cell numbers or viability in the culture plate after the above compound treatments were determined using Promega's CellTiter96® AQueous One Solution Cell Proliferation Assay kits, according to the manufacturer's protocol and instructions. In brief, after removing 50 μl of culture media for glucose assay, cells were incubated with AQueous One solution (25 μl stock solution and 50 μl prewarmed PBS/per well) at 37° C. for 1 hour, and the absorbance of OD490 nm in each sample was determined by the Bio-Tek microplate reader. Cell viability in culture wells were determined by the subtraction of OD490 nm in cultured cells with the OD490 nm in plain culture media (without seeding of cells). Glucose production in the culture cells were obtained by normalizing the glucose concentration in culture media by cell viability in each well. At least 3 samples per each treatment were examined for the above analysis. Data are presented as Mean±SEM of those samples. Experiments were repeated at least twice.
The half maximal inhibitory concentration (IC50 values) of Compound #43 or metformin for the inhibition of glucose production were determined using the ED50 Plus v1.0 online software.

Lepr^db/db mice = experiment: Glucose tolerance test in Lepr^db/db mice; format: in vivo, mouse
Procedure: Male Lepr^db/db mice at 38 days of age were intraperitoneally (ip) injected daily with physiological saline ([…]) containing 0.2% DMSO, Compound #C, Compound #50, Compound #68, and/or Compound #43 (25 μg selenium or sulfur equivalents of each compound per kilogram body weight, diluted in sterile physiological saline) for periods ranging from 43-90 days. Body weights of the above treated mice were recorded daily using a balance and any visible abnormal animal gross morphology and walking behavior were monitored daily. After the treatments, animals were fasted overnight and then subjected to blood glucose or HbA1c assays, glucose tolerance tests or tissue collections.
For comparative studies of any potential anti-diabetic effects of Compounds #43, #69 and #70, male Lepr^db/db mice at 41 days of age were intraperitoneally (ip) injected daily with physiological saline ([…]) containing 0.2% DMSO, Compound #43, Compound #69, or Compound #70 (25 μg selenium of each compound per kilogram body weight, diluted in sterile physiological saline). After the treatments for 43 days, animals were fasted overnight and then subjected to blood glucose and glucose tolerance tests. After daily treatments of these compounds for 90 days, sera from these animals were collected and then subjected to blood HbA1c assays.
Glucose tolerance tests were performed as described previously (Li et al, Int J Biol Sci 2008; 4:29-36). Briefly, overnight-fasted Lepr^db/db mice after saline or compound treatments were injected intraperitoneally with 2 grams/kg body weight of 20% D-glucose. Blood glucose levels at time 0 (immediately before the injection of glucose), 0.25, 0.5, 1 and 2 hours after injection of glucose were determined using a glucometer with a maximum glucose measurement capacity of 600 mg/dL. Because of this, blood glucose levels over 600 mg/dL were counted as 600 mg/dL in the data analysis.

G6pc [1] = experiment: QRT-PCR of G6pc mRNA in livers of Lepr^db/db mice; format: in vivo, mouse; conditions: 25 μg selenium/kg ip daily, 52 days (FIG. 9)
Procedure: Male Lepr^db/db mice (C57BL/6J strain, purchased from The Jackson Laboratory) at 38-days of age were intraperitoneally injected daily with physiological saline ([…]) containing 0.2% DMSO, Compound #50, or Compound #43 (25 μg selenium equivalent of each compound per kilogram body weight, diluted in the sterile physiological saline) for 52 days. After the treatment, livers were collected and subjected RNA analysis.
(§1) Total RNA from saline- or selenium compound-treated Lepr^db/db mice was isolated using a Qiagen RNAeasy RNA isolation kit according to the Manufacturer's protocol. Total RNA from cultured cells was isolated using Trizol (Invitrogen) according to the manufacturer's protocol, and then incubated with DNase I to remove any potential contaminating genomic DNA. RNA samples were subjected to real-time PCR (QRT-PCR) analysis using Applied-Bioscience's RT kit and predesigned Taqman probes (Invitrogen), as described previously (Lan et al EMBO J 2003). Data were normalized by Actin B (Actb) mRNA levels in each sample, and are presented as mean±SEM of 3-5 samples.

G6pc [2] = experiment: QRT-PCR of basal G6pc expression in AML-12 cells; format: cell-based, mouse; conditions: 300 ppb selenium (3.8 μM), serum-free, 24 hr (FIG. 10A)
Procedure: For RNA analysis of basal G6pc expression (without the presence of diabetic stimuli: 8-CPT/Dex), amplified AML-12 and HepG2 cells were cultured on 24-well plates (0.5-2×10^5 cells/well) overnight in 10% FBS ITS- and Dex-free DMEM/F12 media and 10% FBS EMEM media, respectively. These cells were rinsed twice with PBS to remove residual sera. Then, the PBS-washed HepG2 cells were treated without or with insulin or Compound #43 in serum-free EMEM media for 40 hr. In some experiments, the PBS-washed AML-12 cells were incubated without or with Compound #43 or other selenium compounds in serum-free DMEM/F12 media for 24 hours. In other experiments, amplified AML-12 cells were pretreated without or with Compound #43 (150 or 300 ppb) in 10% FBS but ITS/Dex-free DMEM/F12 media for 24 hr. After 24 hr treatment, AML-12 cells were washed twice with PBS (to remove any residual serum in the culture) and then treated with insulin, Compound #43 or both, in the serum-free DMEM/Dex media for 6 hr.
as §1

Glut4 = experiment: QRT-PCR of Glut4 mRNA in livers of Lepr^db/db mice; format: in vivo, mouse; conditions: 25 μg selenium/kg ip daily, 52 days (FIG. 15)
Procedure: Male Lepr^db/db mice (C57BL/6J strain, purchased from The Jackson Laboratory) at postnatal day 38 were intraperitoneally injected daily with physiological saline ([…]) containing 0.2% DMSO, Compound #43, or Compound #50 (25 μg selenium of each compound per kilogram body weight, diluted in sterile physiological saline) for 52 days. After treatment, livers were collected and subjected to RNA analysis.
Total liver RNA from saline- or Compound #43-treated Lepr^db/db mice was isolated using a Qiagen RNAeasy RNA isolation kit according to the Manufacturer's protocol. Total RNA from cultured cells was isolated using Trizol (Invitrogen) according to the manufacturer's protocol, and then incubated with DNase I to remove any potential contaminating genomic DNA. RNA samples were subjected to real-time PCR analysis using Applied-Bioscience's RT kit and predesigned Taqman probes (Invitrogen), as described previously (Lan et al EMBO J 2003). Data were normalized by Actin B (Actb) mRNA levels in each sample and are presented as mean±SEM of 3-5 samples.

C2C12 cells = conditions: each individually, mouse skeletal muscle myoblast C2C12 cells; cited from earlier work
brain cells = conditions: cited from earlier work
Tau = conditions: AD brains; cited from earlier work

Row | SMILES | effect on glucose production in HepG2 cells (HepG2 cells) | blood glucose level at 2 hr after glucose injection (Lepr^db/db mice; FIG. 8A, 43 days treatment) | blood glucose levels at 0.25, 0.5 and 1 hr after glucose injection (Lepr^db/db mice; FIG. 8A, 43 days treatment) | effect on G6pc mRNA levels in the liver (G6pc [1]) | effect on G6pc expression (G6pc [2]) | effect on Glut4 mRNA levels in the liver (Glut4) | glucose tolerance (overall) (Lepr^db/db mice; 25 μg selenium/kg ip daily 43 days from day 38, glucose 2 g/kg (FIG. 8A)) | mitochondrial (MT) potential (C2C12 cells) | gluconeogenesis in brain cells (brain cells) | Tau hyperphosphorylation (Tau)
1 | C[Se]C[C@H]1O[C@@H](n2cnc3c(N)ncnc32)C2OC(=O)OC21 (stereo partly shown) [Compound #50, Adenosine, 5′-Se-methyl-5′-seleno-, cyclic 2′,3′-carbonate] | inhibited glucose production | significant decrease of glucose level | no obvious decrease | slightly, but not significantly, decreased | did not significantly inhibit G6pc expression | numerically increased Glut4 mRNA levels | – | – | – | –
2 | C[Se]C[C@H]1O[C@@H](n2cnc3c(N)ncnc32)[C@@H](O)C1O (stereo partly shown) [Compound C, 5′-Methylselenoadenosine, reference compound] | inhibited glucose production | – | – | – | did not significantly inhibit G6pc expression | – | did not improve glucose tolerance | can enhance mitochondrial (MT) potential | can enhance gluconeogenesis in brain cells | can inhibit Tau hyperphosphorylation in AD brains
3 | Nc1ncnc2c1ncn2[C@@H]1O[C@H](C[Se]CC[C@H](N)C(=O)O)C(O)C1O (stereo partly shown) [Compound D, 5′-Selenoadenosyl homocysteine, reference compound] | inhibited glucose production | – | – | – | did not significantly inhibit G6pc expression | – | – | can enhance mitochondrial (MT) potential | – | can inhibit Tau hyperphosphorylation in AD brains

Reference: US11613552B2, “Pharmaceutical agents, compositions, and methods relating thereto” (Alltech, Inc., priority 2017, dated 2023)
